Results as given in patent publication US20240059704A1, “Cereblon Ligands and Uses Thereof” (REGENTS OF THE UNIVERSITY OF MICHIGAN, priority 2022, published 2024).
pIC50: −log10 of the molar value. Counter-ions that a name gives are not always drawn.

Legend:
[1] = molecular target: wild-type human CRBN protein (Homo sapiens (Human), UniProt Q96SW2); assay: Cereblon Binding Assay (Cisbio Cereblon Binding Kit, TR-FRET); conditions: GST-tagged wild-type human CRBN, XL665-labelled Thalidomide
Description: The binding to cereblon (CRBN) was determined using the Cereblon Binding Kit (Cisbio, #64BDCRBNPEG) following the manufacturer's instruction. Briefly, serially diluted compounds were incubated with GST-tagged wild-type human CRBN protein, XL665-labelled Thalidomide and Europium Cryptate labelled GST antibody at room temperature for about 3 hours. Time Resolved Fluorescence Resonance Energy Transfer (TR-FRET) measurements were acquired on a CALRIOstar plate reader with MARS data analysis software (BMG Labtech), with the following settings: 665/10 nm and 620/10 nm emission, 60 […]. The TR-FRET ratio was taken as the 665/620 nm intensity ratio.

[2] = molecular target: CRBN/DDB1 (Homo sapiens (Human), UniProt Q96SW2); conditions: HTRF, His tagged CRBN+DDB-DLS7+CXU4, Cy5-labeled Thalidomide probe; read-out: CRBN Binding IC50
CRBN/DDB1, sequence (Q96SW2 whole entry): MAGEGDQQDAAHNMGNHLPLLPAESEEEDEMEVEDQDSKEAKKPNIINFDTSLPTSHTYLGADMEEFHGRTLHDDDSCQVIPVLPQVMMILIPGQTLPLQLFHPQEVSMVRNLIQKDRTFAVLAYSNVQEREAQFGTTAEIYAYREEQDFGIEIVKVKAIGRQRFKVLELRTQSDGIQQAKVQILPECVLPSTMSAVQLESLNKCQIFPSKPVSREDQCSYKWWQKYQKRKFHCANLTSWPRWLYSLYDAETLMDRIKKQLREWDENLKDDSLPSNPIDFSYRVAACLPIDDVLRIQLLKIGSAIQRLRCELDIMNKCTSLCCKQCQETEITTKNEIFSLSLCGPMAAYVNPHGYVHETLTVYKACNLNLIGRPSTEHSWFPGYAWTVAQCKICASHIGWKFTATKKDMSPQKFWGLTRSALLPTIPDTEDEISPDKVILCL
CRBN/DDB1, sequence (Q16531 whole entry partner): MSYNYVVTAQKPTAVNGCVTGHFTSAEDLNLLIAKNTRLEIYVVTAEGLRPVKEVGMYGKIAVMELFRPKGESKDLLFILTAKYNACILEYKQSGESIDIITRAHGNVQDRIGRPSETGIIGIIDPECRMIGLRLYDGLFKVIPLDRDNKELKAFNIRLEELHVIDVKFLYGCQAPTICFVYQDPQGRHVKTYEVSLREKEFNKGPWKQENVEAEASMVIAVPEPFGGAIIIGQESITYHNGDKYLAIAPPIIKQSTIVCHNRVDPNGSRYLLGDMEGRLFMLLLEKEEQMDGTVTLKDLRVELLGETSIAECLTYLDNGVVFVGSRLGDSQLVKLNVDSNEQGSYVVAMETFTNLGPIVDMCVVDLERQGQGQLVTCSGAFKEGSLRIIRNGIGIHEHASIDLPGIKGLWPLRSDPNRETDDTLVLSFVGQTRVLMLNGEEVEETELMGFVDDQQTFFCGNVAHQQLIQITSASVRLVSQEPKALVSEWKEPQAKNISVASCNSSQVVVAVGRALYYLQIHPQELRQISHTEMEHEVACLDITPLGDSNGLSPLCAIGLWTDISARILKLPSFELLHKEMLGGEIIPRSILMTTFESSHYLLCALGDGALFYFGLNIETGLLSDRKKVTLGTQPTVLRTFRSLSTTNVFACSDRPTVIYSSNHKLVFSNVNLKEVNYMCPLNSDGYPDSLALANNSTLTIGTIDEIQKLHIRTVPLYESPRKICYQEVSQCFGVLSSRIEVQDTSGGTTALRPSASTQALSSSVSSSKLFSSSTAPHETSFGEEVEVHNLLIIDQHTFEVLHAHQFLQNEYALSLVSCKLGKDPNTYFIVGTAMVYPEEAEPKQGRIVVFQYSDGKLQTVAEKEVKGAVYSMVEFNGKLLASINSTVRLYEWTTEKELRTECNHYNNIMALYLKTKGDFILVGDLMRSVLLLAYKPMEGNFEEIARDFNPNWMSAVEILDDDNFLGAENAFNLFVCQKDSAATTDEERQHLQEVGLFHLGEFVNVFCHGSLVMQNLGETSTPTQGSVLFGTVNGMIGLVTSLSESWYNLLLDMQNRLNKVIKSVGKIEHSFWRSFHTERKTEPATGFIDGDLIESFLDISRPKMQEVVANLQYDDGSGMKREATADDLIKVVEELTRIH
Description: The binding potency was determined using HTRF assay technology (Perkin Elmer). Compounds were serially diluted in DMSO and 0.2 μL volume was transferred to white 384-well plate.

[3] = system: T47D cell line; assay: Cell growth inhibition in T47D cell line; assay type: cell-based; conditions: Homo sapiens, μM, class key in nM
Description: Cell Growth Assay. The cells were seeded at certain concentration (e.g., at 1500/well) in multi-well plates overnight. Cells are subsequently treated with the compounds. A certain period of time (e.g., 4 days) after the compound treatment, 10% WST-8 reagent was added to the culture medium and incubate under certain condition (e.g., in a CO2 incubator at 37° C. for 2.5 hours). The absorbance is measured on each sample using a microplate reader at certain wavelength (e.g., 450 nm). The relative absorbance is calculated against the vehicle control from three individually repeats.

[4] = molecular target: ER (Homo sapiens (Human), UniProt P03372); assay: In-cell western blot analysis (ICW), relative ER percentage in treated cells; assay type: cell-based; conditions: ER degradation, 16 hours
ER, sequence (P03372 whole entry): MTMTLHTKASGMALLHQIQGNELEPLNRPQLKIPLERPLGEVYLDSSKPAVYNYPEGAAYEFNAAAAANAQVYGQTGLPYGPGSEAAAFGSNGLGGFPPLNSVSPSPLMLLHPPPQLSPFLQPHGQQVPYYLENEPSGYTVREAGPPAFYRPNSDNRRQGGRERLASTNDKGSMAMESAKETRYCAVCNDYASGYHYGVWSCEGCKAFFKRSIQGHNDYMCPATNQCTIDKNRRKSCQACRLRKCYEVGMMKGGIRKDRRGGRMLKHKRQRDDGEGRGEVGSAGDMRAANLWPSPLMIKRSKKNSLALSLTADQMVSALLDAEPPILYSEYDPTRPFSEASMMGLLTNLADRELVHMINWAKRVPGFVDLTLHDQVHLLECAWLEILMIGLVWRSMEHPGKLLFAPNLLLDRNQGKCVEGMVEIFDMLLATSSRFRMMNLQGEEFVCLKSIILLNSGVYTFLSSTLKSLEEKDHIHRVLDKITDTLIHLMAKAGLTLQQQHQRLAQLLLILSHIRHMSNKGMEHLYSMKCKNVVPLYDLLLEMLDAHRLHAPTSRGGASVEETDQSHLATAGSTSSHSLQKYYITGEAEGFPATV
Description: In-cell western blot analysis. Cells are seeded in multi-well plates (e.g., at 40,000 or 10,000 cells/well). Diluted compounds at certain concentration are added (final 0.5% DMSO) and cells are incubated for certain period of time (e.g., 16 hours). Formaldehyde (e.g., PBS:FA=9:1) is added and followed by washing with PBS. The cells are blocked with Licor blocking buffer (Li-Cor). The relative ER percentage in treated cells were obtained by comparing the values of treated wells to those in untreated and DMSO-treated wells as 100%.
In-cell western blot analysis. a. seed cells in black-sided/clear bottom 96- or 384-well plates at 40,000 or 10,000 cells/well, overnight; b. add diluted compounds (final 0.5% DMSO), 16 hours. 16 h later, remove medium, add 100 μL or 25 μL of 3.7-4.0% formaldehyde (PBS:FA=9:1), RT 20 min, no shaking; c. wash with PBS, and permeabilized with 100 μL or 25 μL/well of 1×PBS+0.1% Triton X-100 10 minutes; d. block with 100 μL or 25 μL Licor blocking buffer (Li-Cor), RT 1h, moderate shaking; d. Add 100 μL or 25 μL of anti-ER (cs-8644, 1:500-1,000)+GAPDH (Millipore MAB374, 1:1000) in Block+0.05% Tween 20. RT 2h, gentle shaking. Negative control: cells plus secondary antibodies (no primary antibodies); e. wash×4 with PBS+0.05-0.1% Tween 20, gentel shaking; f. anti-rabbit-680 and anti-mouse-800 (both 1:1000 in LiCor block+0.05% Tween20, RT 1h, gentle shaking, no light. LI-COR: 0.2% to reduce background; g. wash×4 with PBS+0.05% Tween 20, gental shaking; h. add 100 μL or 25 μL of PBS to each well and read on CLX plate reader. The relative ER percentage in treated cells were obtained by comparing the values of treated wells to those in untreated and DMSO-treated wells as 100%.

wild-type human CRBN protein, sequence (Q96SW2 whole entry): as the sequence (Q96SW2 whole entry) above

Row | SMILES | pIC50 [1] | IC50 [3] [µM] | DC50 [4] [nM] | pIC50 [2]
1 | O=C1CCC(N2Cc3c(ccc4c3OC3(C=C4)CNC3)C2=O)C(=O)N1 (stereo not drawn) [Compound A3, 3-(7′-oxo-7′,9′-dihydro-8′H-spiro[azetidine-3,2′-pyrano[2,3-e]isoindol]-8′-yl)piperidine-2,6-dione hydrochloride] |  |  |  | 5.89
2 | O=C1CCC(N2Cc3c(ccc4c3OCC3(CN(CC5COC6(CCN(c7ccc([C@@H]8c9ccc(O)cc9CC[C@@H]8c8ccccc8)cc7)CC6)OC5)C3)O4)C2=O)C(=O)N1 (stereo partly drawn) [THP-B377] |  | < 0.001 | 10 to 100 | 
3 | O=C1CC[C@H](N2Cc3c(ccc4c3OCC3(CCN(CC5CCC6(CCN(c7ccc([C@@H]8c9ccc(O)cc9CC[C@@H]8c8ccccc8)cc7)CC6)O5)CC3)O4)C2=O)C(=O)N1 (stereo partly drawn) [THP-B372] |  | 0.001 to 0.01 | 10 to 100 | 
4 | O=C1CCC(N2Cc3c(ccc4c3OCC3(CN(CC5CCC6(CCN(c7ccc([C@@H]8c9ccc(O)cc9CC[C@@H]8c8ccccc8)cc7)CC6)OC5)C3)O4)C2=O)C(=O)N1 (stereo partly drawn) [THP-B386] |  | 0.001 to 0.01 | > 100 | 
5 | O=C1CCC(N2Cc3c(ccc4c3OC3(CCNCC3)CC4)C2=O)C(=O)N1 (stereo not drawn) [Compound A2, 3-(7′-oxo-3′,4′,7′,9′-tetrahydro-8′H-spiro[piperidine-4,2′-pyrano[2,3-e]isoindol]-8′-yl)piperidine-2,6-dione] |  |  |  | 6.21
6 | O=C1CCC(N2Cc3c(ccc4c3OCC3(CN(CC5CCC6(CC5)CN(c5ccc([C@@H]7c8ccc(O)cc8CC[C@@H]7c7ccccc7)cc5)C6)C3)O4)C2=O)C(=O)N1 (stereo partly drawn) [THP-B376] |  | < 0.001 | 10 to 100 | 
7 | O=C1CC[C@H](N2Cc3cc4c(c(F)c3C2=O)OCC2(CCN(CC3CC5(CCN(c6ccc([C@@H]7c8ccc(O)cc8CC[C@@H]7c7ccccc7)cc6)CC5)C3)CC2)O4)C(=O)N1 [THP-B384] |  | 0.001 to 0.01 | > 100 | 
8 | O=C1CC[C@H](N2Cc3c(ccc4c3OCC3(CCN(CC5COC6(CCN(c7ccc([C@@H]8c9ccc(O)cc9CC[C@@H]8c8ccccc8)cc7)CC6)OC5)CC3)O4)C2=O)C(=O)N1 [THP-B374] |  | < 0.001 | < 10 | 
9 | O=C1CC[C@H](N2Cc3c(ccc4c3OCC3(CCN(CC5CC6(CCN(c7ccc([C@@H]8c9ccc(O)cc9CC[C@@H]8c8ccccc8)cc7)CC6)C5)CC3)O4)C2=O)C(=O)N1 [THP-B371] |  | < 0.001 | < 10 | 
10 | O=C1CC[C@H](N2Cc3cc4c(c(F)c3C2=O)OCC2(CCN(CC3CCN(c5ccc([C@@H]6c7ccc(O)cc7CC[C@@H]6c6ccccc6)cc5)CC3)CC2)O4)C(=O)N1 [THP-B383, (S)-3-(5′-fluoro-1-((1-(4-((1R,2S)-6-hydroxy-2-phenyl-1,2,3,4-tetrahydronaphthalen-1-yl)phenyl)piperidin-4-yl)methyl)-6′-oxo-6′,8′-dihydro-3′H,7′H-spiro[piperidine-4,2′-[1,4]dioxino[2,3-f]isoindol]-7′-yl)piperidine-2,6-dione] |  | > 0.01 | > 100 | 
11 | O=C1CCC(N2Cc3c(ccc4c3OCC3(CN(CC5CC6(CCN(c7ccc([C@@H]8c9ccc(O)cc9CC[C@@H]8c8ccccc8)cc7)CC6)C5)C3)O4)C2=O)C(=O)N1 (stereo partly drawn) [THP-B368] |  | 0.001 to 0.01 | > 100 | 
12 | O=C1CC[C@H](N2Cc3c(ccc4c3OCC3(CCN(CC5CCN(c6ccc([C@@H]7c8ccc(O)cc8CC[C@@H]7c7ccccc7)cc6)CC5)CC3)O4)C2=O)C(=O)N1 [THP-B369] |  | < 0.001 | 10 to 100 | 
13 | O=C1CC[C@H](N2Cc3cc4c(cc3C2=O)OCC2(CN(CC3CC5(CCN(c6ccc([C@@H]7c8ccc(O)cc8CC[C@@H]7c7ccccc7)cc6)CC5)C3)C2)O4)C(=O)N1 [THP-B394, (S)-3-(1-((7-(4-((1R,2S)-6-hydroxy-2-phenyl-1,2,3,4-tetrahydronaphthalen-1-yl)phenyl)-7-azaspiro[3.5]nonan-2-yl)methyl)-6′-oxo-6′,8′-dihydro-3′H,7′H-spiro[azetidine-3,2′-[1,4]dioxino[2,3-f]isoindol]-7′-yl)piperidine-2,6-dione] |  | 0.001 to 0.01 |  | 
14 | O=C1CCC(N2Cc3c(ccc4c3OC3(C=C4)CCNCC3)C2=O)C(=O)N1 (stereo not drawn) [Compound A1, 3-(7′-oxo-7′,9′-dihydro-8′H-spiro[piperidine-4,2′-pyrano[2,3-e]isoindol]-8′-yl)piperidine-2,6-dione] |  |  |  | 5.96
15 | O=C1CCC(N2C(=O)c3cc4c(cc3C2=O)OC2(CO4)CN(CC3CC4(CCN(c5ccc([C@@H]6c7ccc(O)cc7CC[C@@H]6c6ccccc6)cc5)CC4)C3)C2)C(=O)N1 (stereo partly drawn) [THP-B385] |  | 0.001 to 0.01 | > 100 | 
16 | O=C1CCC(N2Cc3c(ccc4c3OCC3(CN(CC5CCN(c6ccc([C@@H]7c8ccc(O)cc8CC[C@@H]7c7ccccc7)cc6)CC5)C3)O4)C2=O)C(=O)N1 (stereo partly drawn) [THP-B367] |  | 0.001 to 0.01 | > 100 | 
17 | O=C1CCC(N2Cc3c(ccc4c3OC3(CC4)CNC3)C2=O)C(=O)N1 (stereo not drawn) [Compound A4, 3-(7′-oxo-3′,4′,7′,9′-tetrahydro-8′H-spiro[azetidine-3,2′-pyrano[2,3-e]isoindol]-8′-yl)piperidine-2,6-dione hydrochloride] |  |  |  | 5.28
18 | O=C1CC[C@H](N2Cc3c(ccc4c3OCC3(CCN(CC5COC6(CCN(c7ccc([C@@H]8c9ccc(O)cc9CC[C@@H]8c8ccccc8)cc7)CC6)C5)CC3)O4)C2=O)C(=O)N1 (stereo partly drawn) [THP-B373] |  | < 0.001 | < 10 | 

Now from value to molecule, other results behind:

Row | pIC50 [1] | IC50 [3] [µM] | DC50 [4] [nM] | SMILES | pIC50 [2]
19 | 5.36 |  |  | O=C1CC[C@H](N2Cc3cc4c(cc3C2=O)OCC2(CNC2)O4)C(=O)N1 [Compound B4, (S)-3-(6′-oxo-6′,8′-dihydro-3′H,7′H-spiro[azetidine-3,2′-[1,4]dioxino[2,3-f]isoindol]-7′-yl)piperidine-2,6-dione] | 
20 | 6.59 |  |  | O=C1CCC(N2Cc3c(ccc4c3OCC3(CNC3)O4)C2=O)C(=O)N1 (stereo not drawn) [Compound B2, 3-(7′-oxo-7′,9′-dihydro-2′H,8′H-spiro[azetidine-3,3′-[1,4]dioxino[2,3-e]isoindol]-8′-yl)piperidine-2,6-dione] | 
21 | 5.76 |  |  | O=C1CC[C@H](N2Cc3cc4c(c(F)c3C2=O)OCC2(CCNCC2)O4)C(=O)N1 [Compound B3, (S)-3-(5′-fluoro-6′-oxo-6′,8′-dihydro-3′H,7′H-spiro[piperidine-4,2′-[1,4]dioxino[2,3-f]isoindol]-7′-yl)piperidine-2,6-dione] | 
22 | 5.33 |  |  | O=C1CCC(N2C(=O)c3cc4c(cc3C2=O)OC2(CNC2)CO4)C(=O)N1 (stereo not drawn) [Compound B5, 7′-(2,6-dioxopiperidin-3-yl)-7′-hydro-3′H,6′H-spiro[azetidine-3,2′-[1,4]dioxino[2,3-f]isoindole]-6′,8′-dione] | 
23 | 6.48 |  |  | O=C1CC[C@H](N2Cc3c(ccc4c3OCC3(CCNCC3)O4)C2=O)C(=O)N1 [Compound B1, (S)-3-(7′-oxo-7′,9′-dihydro-2′H,8′H-spiro[piperidine-4,3′-[1,4]dioxino[2,3-e]isoindol]-8′-yl)piperidine-2,6-dione] | 
